According to US20070197632A1, “Aminocyclohexyl ether compounds and uses thereof” (Cardiome Pharma Corp, priority 2003, published 2007):

How the values were obtained:
conscious rats = conditions: rat, in vivo, iv
[1] = test system: sustained AF maintained during continuous vagal nerve stimulation; assay: Canine vagal-AF model; format: in vivo, dog; conditions: anesthetized dogs, IV
Experimental: St.-Georges et al., 1997). Dogs are ventilated mechanically with room air supplemented with oxygen via an endotracheal tube at 20 to 25 breaths/minute with a tidal volume obtained from a nomogram. […] Catheters are inserted into the femoral artery for blood pressure recording and blood gas measurement, and into both femoral veins for drug administration and venous sampling. […] Body temperature is maintained at 37-40° C. with a heating blanket. The heart is exposed via a medial thoracotomy and a pericardial cradle is created. […] Drug effects to terminate sustained AF maintained during continuous vagal nerve stimulation are assessed. […] The vagal stimulation voltage is adjusted under control conditions, and then readjusted after each treatment to maintain the same bradycardic effect. […] Diastolic threshold and ERP are determined in duplicate and averaged to give a single value. […] The interval between the stimulus artefact and the peak of the local electrogram is measured as an index of conduction velocity. […] The stimulus voltage-heart rate relationship for vagal nerve stimulation is determined under control conditions in most experiments. […] After the termination of AF, the diastolic threshold and ERP of the atrium and ventricle are determined. […] Group data are expressed as the mean±SEM. […]

SMILES	convulsion dose (conscious rats) [µmol/kg/min]	Median dose required for termination of AF [1] [µmol/kg]	Mean dose required for termination of AF ([1]; mean±SEM) [µmol/kg]
COc1ccc(CCO[C@H]2CCCC[C@@H]2N2CC[C@H](O)C2)cc1OC.Cl [Compound 7, (1S,2S)-2-[(3S)-Hydroxypyrrolidinyl]-1-(3,4-dimethoxyphenethoxy)-cyclohexane monohydrochloride]	64		
O=C(NCC1CCCCN1)c1cc(OCC(F)(F)F)ccc1OCC(F)(F)F (stereo not drawn) [Flecainide]		2.5	4 ± 2
